From patent EP1296974B1, “2-CYANOPYRROLIDINE DERIVATIVES AND THEIR USE AS MEDICAMENTS” (NOVARTIS AG, priority 2000, dated 2001)
Counter-ions that a name gives are not always drawn.

What was measured:
human plasma DPP-IV = target: T1, human plasma DPP-IV (Homo sapiens, UniProt P27487); experiment: DPP-IV activity in human plasma (modified Kubota assay); type: biochemical; conditions: substrate H-Glycine-Proline-AMC, 8-point dose-response curves
T1 construct: from tissue; host or cells: human plasma
Description: (§1) Briefly, 5 µl of plasma are added to 96-well flat-bottom micortiter plates (Falcon), followed by the addition of 5 µl of 80 mM MgCl2 in incubation buffer (25 mMHEPES, 140 mM NaCl, 1% RIA-grade BSA, pH 7.8). After a 60 min. incubation at room temperature, the reaction is initiated by the addition of 10 µl of incubation buffer containing 0.1 mM substrate (H-Glycine-Proline-AMC; AMC is 7-amino-4-methylcoumarin). The plates are covered with aluminum foil (or kept in the dark) and incubated at room temperature for 20 min. […] A fluorescence-concentration curve of free AMC is generated using 0-50 µM solutions of AMC in assay buffer. The curve generated is linear and is used for interpolation of substrate consumption (catalytic activity in nmoles substrate cleaved/min). As with the previous assay, the potency of the test compounds as DPP-IV inhibitors, expressed as IC50, is calculated from 8-point, dose-response curves using a 4 parameter logistic function.

rat plasma DPP-IV = target: T2, rat plasma DPP-IV (Rattus norvegicus, UniProt P14740); experiment: DPP-IV activity in rat plasma (modified Kubota assay); type: biochemical; conditions: substrate H-Glycine-Proline-AMC, 8-point dose-response curves
T2 construct: from tissue; host or cells: rat plasma
Description: as §1

DPP-IV = target: T3, DPP-IV (Homo sapiens, UniProt P27487); experiment: Caco-2 DPP-IV Assay (inhibition of DPP-IV activity from human colonic carcinoma cell extracts); type: biochemical; conditions: Caco-2 cell extract, substrate H-Alanine-Proline-pNA, 8-point dose-response curves
T3 construct: The assay is conducted by adding 20 µg solubilized Caco-2 protein; host or cells: Caco-2 (differentiated), NP-40 solubilized cell extract
Description: The human colonic carcinoma cell line Caco-2 was obtained from the American Type Culture Collection (ATCC HTB 37). Differentiation of the cells to induce DPP-IV expression was accomplished as described by Reisher, et al. in an article entitled "Increased expression of intestinal cell line Caco-2" in Proc. Natl. Acad. Sci., Vol. 90, pgs. […] Cell extract is prepared from cells solubilized in 10mM Tris HCI, 0.15 M NaCl, 0.04 t.i.u.aprotinin, 0.5% nonidet-P40, pH 8.0, which is centrifuged at 35,000 g for 30 min. at 4 °C. to remove cell debris. The assay is conducted by adding 20 µg solubilized Caco-2 protein, diluted to a final volume of 125 µl in assay buffer (25 mM Tris HCI pH 7.4, 140mM NaCl, 10 mM KCI, 1% bovine serum albumin) to microtiter plate wells. After a 60 min. incubation at room temperature, the reaction is initiated by adding 25 µl of 1 mM substrate (H-Alanine-Proline-pNA; pNA is p-nitroaniline). […] A standard curve of free p-nitroaniline is generated using 0-500 µM solutions of free pNA in assay buffer. The curve generated is linear and is used for interpolation of substrate consumption (catalytic activity in nmoles substrate cleaved /min).
The potency of the test compounds as DPP-IV inhibitors, expressed as IC50, is calculated from 8-point, dose-response curves using a 4-parameter logistic function.

[1] = Oral glucose challenge in insulin resistant high fat fed rats: plasma glucose excursion; type: in vivo, Male Sprague-Dawley rats; conditions: 10 µmol/kg orally; glucose 1 g/kg p.o.; % decrease of area under the plasma glucose curve compared to vehicle-treated control animals
Source text: (§2) More specifically, for example, the compounds of formula 1, and their corresponding pharmaceutically acceptable acid addition salts, improve early insulin response to an oral glucose challenge and, therefore, are useful in treating non-insulin-dependent diabetes mellitus. The ability of the compounds of formula I, and their corresponding pharmaceutically acceptable acid addition salts, to improve early insulin response to an oral glucose challenge may be measured in insulin resistant rats according to the following method:
(§3) Male Sprague-Dawley rats that had been fed a high fat diet (saturated fat = 57% calories) for 2-3 weeks were fasted for approximately 2 hours on the day of testing, divided into groups of 7-10, and dosed orally with 10 µmol/kg of test compound in carboxymethylcellulose. […] Blood samples, obtained at various time-points from chronic jugular vein catheters, were analyzed for plasma glucose concentration. Data are expressed as % decrease of the area under the plasma glucose curve compared to vehicle-treated control animals.

plasma DPP-IV = target: T4, plasma DPP-IV (Rattus norvegicus, UniProt P14740); experiment: Plasma DPP-IV activity after oral dosing in insulin resistant rats (oral glucose challenge study); type: in vivo, Male Sprague-Dawley rats; conditions: 10 µmol/kg orally, ten minutes prior to glucose (1 g/kg p.o.), n=7-8, read-out: inhibition of plasma DPP-IV activity during the study
T4 construct: from tissue; host or cells: plasma of male Sprague-Dawley rats dosed orally (in vivo / ex vivo read-out)
Source text: as §2, §3

T1 sequence (P27487 39-766 limits assumed): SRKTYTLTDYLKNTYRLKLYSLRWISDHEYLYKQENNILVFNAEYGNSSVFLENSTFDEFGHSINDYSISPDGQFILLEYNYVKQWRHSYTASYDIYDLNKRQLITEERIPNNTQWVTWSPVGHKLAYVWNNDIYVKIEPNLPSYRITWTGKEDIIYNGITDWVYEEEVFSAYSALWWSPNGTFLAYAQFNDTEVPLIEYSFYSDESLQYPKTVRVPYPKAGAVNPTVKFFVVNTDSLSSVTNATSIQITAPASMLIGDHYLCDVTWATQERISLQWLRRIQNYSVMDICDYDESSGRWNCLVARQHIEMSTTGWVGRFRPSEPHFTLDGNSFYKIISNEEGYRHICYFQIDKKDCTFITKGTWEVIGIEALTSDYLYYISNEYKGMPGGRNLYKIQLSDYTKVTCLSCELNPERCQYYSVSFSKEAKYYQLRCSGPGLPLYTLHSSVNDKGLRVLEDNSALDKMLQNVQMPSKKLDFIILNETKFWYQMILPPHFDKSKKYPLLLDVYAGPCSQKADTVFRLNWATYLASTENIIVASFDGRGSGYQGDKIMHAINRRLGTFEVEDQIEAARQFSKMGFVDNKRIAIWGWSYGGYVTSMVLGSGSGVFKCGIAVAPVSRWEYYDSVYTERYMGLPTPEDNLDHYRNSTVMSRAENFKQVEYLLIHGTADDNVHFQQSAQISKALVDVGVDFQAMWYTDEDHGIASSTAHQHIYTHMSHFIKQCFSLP
T3 sequence (P27487 whole entry): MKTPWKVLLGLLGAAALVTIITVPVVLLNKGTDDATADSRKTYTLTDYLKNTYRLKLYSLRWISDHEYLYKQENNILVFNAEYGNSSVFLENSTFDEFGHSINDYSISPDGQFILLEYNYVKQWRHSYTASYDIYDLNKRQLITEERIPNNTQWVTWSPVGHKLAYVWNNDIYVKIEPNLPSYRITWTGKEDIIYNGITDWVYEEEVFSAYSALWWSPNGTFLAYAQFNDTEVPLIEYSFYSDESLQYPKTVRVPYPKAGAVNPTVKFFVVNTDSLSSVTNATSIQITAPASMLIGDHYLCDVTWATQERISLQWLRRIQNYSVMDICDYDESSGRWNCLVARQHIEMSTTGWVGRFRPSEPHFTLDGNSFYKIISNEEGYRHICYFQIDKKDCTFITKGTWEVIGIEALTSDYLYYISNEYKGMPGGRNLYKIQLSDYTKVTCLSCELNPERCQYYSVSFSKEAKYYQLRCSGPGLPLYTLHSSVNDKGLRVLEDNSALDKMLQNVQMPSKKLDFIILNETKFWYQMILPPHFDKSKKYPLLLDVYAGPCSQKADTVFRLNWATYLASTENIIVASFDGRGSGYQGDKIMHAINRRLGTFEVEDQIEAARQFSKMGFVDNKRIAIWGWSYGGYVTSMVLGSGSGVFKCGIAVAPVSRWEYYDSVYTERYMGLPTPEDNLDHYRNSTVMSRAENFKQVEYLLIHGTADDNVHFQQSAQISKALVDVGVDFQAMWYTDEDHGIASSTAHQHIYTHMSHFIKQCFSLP
T2 sequence (P14740 37-767 limits assumed): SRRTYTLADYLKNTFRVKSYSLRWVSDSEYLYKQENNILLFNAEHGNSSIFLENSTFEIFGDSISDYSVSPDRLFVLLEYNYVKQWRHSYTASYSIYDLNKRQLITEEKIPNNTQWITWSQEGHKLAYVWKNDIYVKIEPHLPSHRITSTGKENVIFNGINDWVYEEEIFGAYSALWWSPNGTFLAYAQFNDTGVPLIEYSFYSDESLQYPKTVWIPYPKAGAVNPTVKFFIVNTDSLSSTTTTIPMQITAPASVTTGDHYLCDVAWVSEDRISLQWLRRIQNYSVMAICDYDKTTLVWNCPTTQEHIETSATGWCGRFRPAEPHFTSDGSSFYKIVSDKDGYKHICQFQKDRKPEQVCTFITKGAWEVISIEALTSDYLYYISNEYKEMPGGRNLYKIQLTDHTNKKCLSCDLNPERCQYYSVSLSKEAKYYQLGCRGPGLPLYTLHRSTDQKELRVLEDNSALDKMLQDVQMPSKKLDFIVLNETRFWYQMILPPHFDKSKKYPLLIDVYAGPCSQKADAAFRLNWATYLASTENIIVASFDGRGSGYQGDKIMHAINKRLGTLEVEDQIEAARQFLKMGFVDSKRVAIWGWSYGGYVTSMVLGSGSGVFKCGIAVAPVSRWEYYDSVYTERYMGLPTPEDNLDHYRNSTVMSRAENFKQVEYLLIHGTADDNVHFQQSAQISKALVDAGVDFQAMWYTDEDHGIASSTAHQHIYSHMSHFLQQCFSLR
T4 sequence (P14740 37-767 limits assumed): as above

Row | IC50 (human plasma DPP-IV) [nM] | IC50 (rat plasma DPP-IV) [nM] | IC50 (DPP-IV) [nM] | inhibition at 10 µmol/kg (plasma DPP-IV) [%] | SMILES | Decrease of plasma glucose excursion at 10 µmovkg (p=0.01) [1] [%]
1 | 204 | 107 | 124 | – | N#C[C@@H]1CCCN1C(=O)CNC1CCN(S(=O)(=O)c2ccc(Cl)cc2)CC1 [Ex. 3, 1-[[[1-[(4-Chlorophenyl)sulfonyl]-4-piperidinyl]amino]acetyl]-2-cyano-(S)-pyrrolidine, monohydrochloride] | –
2 | 27 | 14 | 39 | – | CC(C)(C)C(=O)NC1CCC(NCC(=O)N2CCC[C@H]2C#N)CC1 (stereo partly drawn) [Ex. 2U, 1-[[[4-[(2,2-dimethyl-1-oxopropyl)amino]cyclohexyl]amino]acetyl]-2-cyano-(S)-pyrrolidine, monohydrochloride] | –
3 | 124 | 37 | 12 | – | N#C[C@@H]1CCCN1C(=O)CNC1CCC(Nc2nc3cc(Cl)ccc3s2)CC1 (stereo partly drawn) [Ex. 2Y, 1-[[[4-[(5-chloro-2-benzothiazolyl)amino]cyclohexyl]amino]acetyl]-2-cyano-(S)-pyrrolidine, dihydrochloride] | –
4 | 19 | 7 | 13 | – | N#Cc1ccc(NC2CCC(NCC(=O)N3CCC[C@H]3C#N)CC2)cc1 (stereo partly drawn) [Ex. 2W, 1-[[[4-[(4-cyanophenyl)amino]cyclohexyl]amino]acetyl]-2-cyano-(S)-pyrrolidine, dihydrochloride] | –
5 | 4 | 2 | 3 | – | N#C[C@@H]1CCCN1C(=O)CNC1CCC(Nc2ccnc(Cl)n2)CC1 (stereo partly drawn) [Ex. 2S, 1-[[[4-[(2-chloro-4-pyrimidinyl)amino]cyclohexyl]amino]acetyl]-2-cyano-(S)-pyrrolidine, dihydrochloride] | –

Further lines, the compound ahead of its results:

Row | SMILES | IC50 (human plasma DPP-IV) [nM] | IC50 (rat plasma DPP-IV) [nM] | IC50 (DPP-IV) [nM] | inhibition at 10 µmol/kg (plasma DPP-IV) [%] | Decrease of plasma glucose excursion at 10 µmovkg (p=0.01) [1] [%]
6 | N#C[C@@H]1CCCN1C(=O)CNC1CCC(NS(=O)(=O)c2ccccc2)CC1 (stereo partly drawn) [Ex. 2M, 1-[[[4-[(phenylsulfonyl)amino]cyclohexyl]amino]acetyl]-2-cyano-(S)-pyrrolidine, monohydrochloride] | 10 | 6 | 34 | – | –
7 | N#C[C@@H]1CCCN1C(=O)CNC1CCC(Oc2ccc(C(F)(F)F)cc2)CC1 (stereo partly drawn) [Ex. 2EE, 1-[[[4-[4-(trifluoromethyl)phenoxy]cyclohexyl]amino]acetyl]-2-cyano-(S)-pyrrolidine, monohydrochloride] | 150 | 46 | 23 | – | –
8 | CC(C)(CNc1ccc(Cl)cn1)NCC(=O)N1CCC[C@H]1C#N [Ex. 1, 1-[[[2-[(5-Chloro-2-pyridinyl)amino]-1,1-dimethylethyl]amino]acetyl]-2-cyano-(S)-pyrrolidine, monohydrochloride] | 30 | 6 | 2 | – | –
9 | N#C[C@@H]1CCCN1C(=O)CNC1CCC(NC(=O)c2ccccc2)CC1 (stereo partly drawn) [Ex. 2N, 1-[[[4-(benzoylamino)cyclohexyl]amino]acetyl]-2-cyano-(S)-pyrrolidine] | 10 | 5 | 5 | 80 | 39
